Test results as given in US12377104B1, “Methods for treating a fatty liver disease” (Madrigal Pharmaceuticals, Inc., priority 2024, dated 2025).

Assay: MAESTRO-NASH: sex hormones at week 52
Settings: for Estradiol (female), LS mean CFB / Estradiol (female), LS mean difference from PBO (CFB) / Estradiol (male), LS mean CFB / Estradiol (male), LS mean difference from PBO (CFB) / FSH (female), LS mean CFB / FSH (female), LS mean difference from PBO (CFB) / FSH (male), LS mean CFB / FSH (male), LS mean difference from PBO (CFB) / Free testosterone (female), LS mean CFB / Free testosterone (female), LS mean difference from PBO (CFB) / Free testosterone (male), LS mean CFB / Free testosterone (male), LS mean difference from PBO (CFB) / LH (female), LS mean CFB / LH (female), LS mean difference from PBO (CFB) / LH (male), LS mean CFB / LH (male), LS mean difference from PBO (CFB) / SHBG (female), LS mean % CFB / SHBG (female), LS mean CFB / SHBG (female), LS mean difference from PBO (% CFB) / SHBG (female), LS mean difference from PBO (CFB) / SHBG (male), LS mean % CFB / SHBG (male), LS mean CFB / SHBG (male), LS mean difference from PBO (% CFB) / SHBG (male), LS mean difference from PBO (CFB) / SHBG, LS mean % CFB / SHBG, LS mean CFB / SHBG, LS mean difference from PBO (% CFB) / SHBG, LS mean difference from PBO (CFB) / Testosterone (female), LS mean CFB / Testosterone (female), LS mean difference from PBO (CFB) / Testosterone (male), LS mean CFB / Testosterone (male), LS mean difference from PBO (CFB): Week 52

SMILES: CC(C)c1cc(Oc2c(Cl)cc(-n3nc(C#N)c(=O)[nH]c3=O)cc2Cl)n[nH]c1=O [Resmetirom, 2-(3,5-dichloro-4-((5-isopropyl-6-oxo-1,6-dihydropyridazin-3-yl)oxy)phenyl)-3,5-dioxo-2,3,4,5-tetrahydro-1,2,4-triazine-6-carbonitrile]
- Estradiol (female), LS mean CFB (80 mg): 17.7 ng/L
- Estradiol (female), LS mean difference from PBO (CFB) (80 mg): 15.9 ng/L
- Estradiol (male), LS mean CFB (80 mg): 8.9 ng/L
- Estradiol (male), LS mean difference from PBO (CFB) (80 mg): 9.0 ng/L
- FSH (female), LS mean CFB (80 mg): −0.54 mIU/mL
- FSH (female), LS mean difference from PBO (CFB) (80 mg): 0.79 mIU/mL
- FSH (male), LS mean CFB (80 mg): 1.1 mIU/mL
- FSH (male), LS mean difference from PBO (CFB) (80 mg): 1.1 mIU/mL
- Free testosterone (female), LS mean CFB (80 mg): 0 nmol/L
- Free testosterone (female), LS mean difference from PBO (CFB) (80 mg): 0 nmol/L
- Free testosterone (male), LS mean CFB (80 mg): 0.04 nmol/L
- Free testosterone (male), LS mean difference from PBO (CFB) (80 mg): 0.02 nmol/L
- LH (female), LS mean CFB (80 mg): −0.93 mIU/mL
- LH (female), LS mean difference from PBO (CFB) (80 mg): −0.33 mIU/mL
- LH (male), LS mean CFB (80 mg): 1.7 mIU/mL
- LH (male), LS mean difference from PBO (CFB) (80 mg): 1.8 mIU/mL
- SHBG (female), LS mean % CFB (80 mg): 193.0%
- SHBG (female), LS mean CFB (80 mg): 74.1 nmol/L
- SHBG (female), LS mean difference from PBO (% CFB) (80 mg): 177.4%
- SHBG (female), LS mean difference from PBO (CFB) (80 mg): 73.3 nmol/L
- SHBG (male), LS mean % CFB (80 mg): 108.0%
- SHBG (male), LS mean CFB (80 mg): 41.9 nmol/L
- SHBG (male), LS mean difference from PBO (% CFB) (80 mg): 107.3%
- SHBG (male), LS mean difference from PBO (CFB) (80 mg): 40.4 nmol/L
- SHBG, LS mean % CFB (80 mg): 157.5%
- SHBG, LS mean CFB (80 mg): 60.2 nmol/L
- SHBG, LS mean difference from PBO (% CFB) (80 mg): 148.5%
- SHBG, LS mean difference from PBO (CFB) (80 mg): 58.9 nmol/L
- Testosterone (female), LS mean CFB (80 mg): 0.15 µg/L
- Testosterone (female), LS mean difference from PBO (CFB) (80 mg): 0.15 µg/L
- Testosterone (male), LS mean CFB (80 mg): 2.6 µg/L
- Testosterone (male), LS mean difference from PBO (CFB) (80 mg): 2.2 µg/L
- Estradiol (female), LS mean CFB (100 mg): 30.6 ng/L
- Estradiol (female), LS mean difference from PBO (CFB) (100 mg): 28.8 ng/L
- Estradiol (male), LS mean CFB (100 mg): 11.0 ng/L
- Estradiol (male), LS mean difference from PBO (CFB) (100 mg): 11.2 ng/L
- FSH (female), LS mean CFB (100 mg): 0.63 mIU/mL
- FSH (female), LS mean difference from PBO (CFB) (100 mg): 2.0 mIU/mL
- FSH (male), LS mean CFB (100 mg): 1.7 mIU/mL
- FSH (male), LS mean difference from PBO (CFB) (100 mg): 1.7 mIU/mL
- Free testosterone (female), LS mean CFB (100 mg): 0 nmol/L
- Free testosterone (female), LS mean difference from PBO (CFB) (100 mg): 0 nmol/L
- Free testosterone (male), LS mean CFB (100 mg): 0.03 nmol/L
- Free testosterone (male), LS mean difference from PBO (CFB) (100 mg): 0.01 nmol/L
- LH (female), LS mean CFB (100 mg): 0.80 mIU/mL
- LH (female), LS mean difference from PBO (CFB) (100 mg): 1.4 mIU/mL
- LH (male), LS mean CFB (100 mg): 1.9 mIU/mL
- LH (male), LS mean difference from PBO (CFB) (100 mg): 2.0 mIU/mL
- SHBG (female), LS mean % CFB (100 mg): 251.8%
- SHBG (female), LS mean CFB (100 mg): 94.0 nmol/L
- SHBG (female), LS mean difference from PBO (% CFB) (100 mg): 236.2%
- SHBG (female), LS mean difference from PBO (CFB) (100 mg): 93.2 nmol/L
- SHBG (male), LS mean % CFB (100 mg): 174.0%
- SHBG (male), LS mean CFB (100 mg): 60.8 nmol/L
- SHBG (male), LS mean difference from PBO (% CFB) (100 mg): 173.3%
- SHBG (male), LS mean difference from PBO (CFB) (100 mg): 59.3 nmol/L
- SHBG, LS mean % CFB (100 mg): 217.4%
- SHBG, LS mean CFB (100 mg): 80.7 nmol/L
- SHBG, LS mean difference from PBO (% CFB) (100 mg): 208.4%
- SHBG, LS mean difference from PBO (CFB) (100 mg): 79.4 nmol/L
- Testosterone (female), LS mean CFB (100 mg): 0.19 µg/L
- Testosterone (female), LS mean difference from PBO (CFB) (100 mg): 0.19 µg/L
- Testosterone (male), LS mean CFB (100 mg): 3.5 µg/L
- Testosterone (male), LS mean difference from PBO (CFB) (100 mg): 3.0 µg/L
- levels of sex hormones (in vivo): little changed from baseline
